Laboratory results taken from publication PMC5046105, “Improved affinity at the cost of decreased specificity: a recurring theme in PDZ-peptide interactions” (Scientific Reports, 2016).
Residue numbers refer to the chain shown, from its start. Ends that are not written are not given here.

Columns and labels:
pWT PDZ2 K392M = target: T1, pWT PDZ2 K392M (Homo sapiens, UniProt Q12959, C378A/I342W/K392M); experiment: Stopped-flow binding kinetics, peptide with pWT PDZ2 K392M; conditions: for Kd: Kd = koff/kon, ± propagated standard error; for Kd / koff: pH 7.5, 10 °C; for kon: Trp342 fluorescence, 1 µM PDZ, peptide 2–40 µM, N-acetylated peptide, 50 mM potassium phosphate pH 7.5, 10 °C, value ± standard error (EKKHTLL: mean of two experiments); for koff: displacement of pre-formed complex (1 µM PDZ, 2 µM peptide) with 100 and 150 µM dansylated RRRETQV peptide, value ± standard error
T1 construct: constituting SAP97 residues 311–407 and the mutations I342W and C372A; His-tagged lipoyl protein domain (N, cleaved yes); made in house
T1 sequence (Q12959 311-407 I342W/C378A/K392M): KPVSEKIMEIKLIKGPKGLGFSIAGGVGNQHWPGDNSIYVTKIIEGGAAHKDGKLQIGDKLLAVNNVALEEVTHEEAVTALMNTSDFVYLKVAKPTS
Method: (§1) The basic experimental parameters determined were the rate constants of association (kon) and dissociation (koff) for each peptide and for all PDZ variants, respectively, in a procedure described in Fig. 2 for the interaction between PDZØ9 and the EKKHTLL peptide as an example.
(§2) Figure 2 Determination of the two rate constants kon and koff for PDZØ9 binding to the EKKHTLL peptide. kon and koff were determined in separate experiments using stopped-flow spectroscopy and monitoring the change in Trp fluorescence upon binding. (a) The experimental trace was obtained by averaging of three individual experiments in which 11 μM of the EKKHTLL peptide was mixed with 1 μM PDZØ9. The trace was fitted to a single exponential function to obtain the observed rate constant, kobs. […] (c) In a displacement reaction a pre-formed complex between PDZØ9 (1 μM) and the EKKHTLL peptide (2 μM) was mixed with a large excess of dansyl-labeled peptide corresponding to the C-terminal […] of HPV18 E6 (150 μM). […] At high concentrations of dansylated peptide, none of the dissociated EKKHTLL will re-bind, and fitting to a single exponential function returns a kobs value which is equal to the dissociation rate constant, koff, of the pre-formed complex.
(§3) All of the stopped-flow experiments conducted in order to measure the rate constants for the peptide/PDZ interactions, were performed on an SX-20 MV stopped-flow spectrometer (Applied Photophysics Leatherhead, UK) at 10 °C in 50 mM potassium phosphate buffer, pH 7.5. Fluorescence was monitored using the change in emission of Trp342 in the PDZ variants (excitation at 280 nm; emission at 330 ± 30 nm). The peptides were N-acetylated (Ontores Biotechnologies) and the concentration of the respective stock solution was determined with either absorbance, quantitative amino acid analysis or direct detect (EMD Millipore). The rate constants of association, kon, and dissociation, koff, were determined in separate experiments. […] For each PDZ variant the kobs values were plotted versus the concentration of peptide and fitted to the general equation for a reversible bimolecular interaction[38][39] from which kon was derived. The koff was measured in a displacement experiment in which a pre-formed complex of PDZ variant (1 μM) and peptide (2 μM) was mixed with high concentrations of a dansylated RRRETQV-peptide (100, and 150 μM), which competes with the unlabelled peptide for binding to the PDZ. […] The kobs value at high peptide concentration is equal to the overall koff value, as described previously.

pWT PDZ2 L391F = target: T2, pWT PDZ2 L391F (Homo sapiens, UniProt Q12959, C378A/I342W/L391F); experiment: Stopped-flow binding kinetics, peptide with pWT PDZ2 L391F; conditions: for Kd: Kd = koff/kon, ± propagated standard error; for Kd / koff: pH 7.5, 10 °C; for kon: Trp342 fluorescence, 1 µM PDZ, peptide 2–40 µM, N-acetylated peptide, 50 mM potassium phosphate pH 7.5, 10 °C; for kon / koff: value ± standard error; for koff: displacement of pre-formed complex (1 µM PDZ, 2 µM peptide) with 100 and 150 µM dansylated RRRETQV peptide
T2 construct: constituting SAP97 residues 311–407 and the mutations I342W and C372A; His-tagged lipoyl protein domain (N, cleaved yes); made in house
T2 sequence (Q12959 311-407 I342W/C378A/L391F): T1 sequence (Q12959 311-407 I342W/C378A/K392M) with L81F, M82K
Method: as §1, §2, §3

[1] = target: T3, pWT PDZ2 (pseudo wild type SAP97 PDZ2, I342W/C378A) (Homo sapiens, UniProt Q12959, C378A/I342W); experiment: Stopped-flow binding kinetics, peptide with pWT PDZ2; conditions: for Kd: Kd = koff/kon, ± propagated standard error; for Kd / koff: pH 7.5, 10 °C; for kon: Trp342 fluorescence, 1 µM PDZ, peptide 2–40 µM, N-acetylated peptide, 50 mM potassium phosphate pH 7.5, 10 °C; for kon / koff: value ± standard error; for koff: displacement of pre-formed complex (1 µM PDZ, 2 µM peptide) with 100 and 150 µM dansylated RRRETQV peptide
T3 construct: constituting SAP97 residues 311–407 and the mutations I342W and C372A; His-tagged lipoyl protein domain (N, cleaved yes); made in house
T3 sequence (Q12959 311-407 I342W/C378A): T1 sequence (Q12959 311-407 I342W/C378A/K392M) with M82K
Method: as §1, §2, §3

[2] = target: T4, PDZØ9 (pWT SAP97 PDZ2 L391F/K392M) (Homo sapiens, UniProt Q12959, C378A/I342W/K392M/L391F); experiment: Stopped-flow binding kinetics, peptide with PDZØ9; conditions: for Kd: Kd = koff/kon, ± propagated standard error; for Kd / koff / kon: stopped-flow; for Kd / koff: pH 7.5, 10 °C; for koff: displacement of pre-formed complex (1 µM PDZ, 2 µM peptide) with 100 and 150 µM dansylated RRRETQV peptide; for koff / kon: value ± standard error; for kon: Trp342 fluorescence, 1 µM PDZ, peptide 2–40 µM, N-acetylated peptide, 50 mM potassium phosphate pH 7.5, 10 °C
T4 construct: constituting SAP97 residues 311–407 and the mutations I342W and C372A; His-tagged lipoyl protein domain (N, cleaved yes); made in house
T4 sequence (Q12959 311-407 I342W/C378A/L391F/K392M): T1 sequence (Q12959 311-407 I342W/C378A/K392M) with L81F
Method: as §1, §2, §3

Row | Substance | Kd (pWT PDZ2 K392M) [nM] | kon (pWT PDZ2 K392M) [M⁻¹ s⁻¹] | koff (pWT PDZ2 K392M) [s⁻¹] | Kd (pWT PDZ2 L391F) [nM] | kon (pWT PDZ2 L391F) [M⁻¹ s⁻¹] | koff (pWT PDZ2 L391F) [s⁻¹] | Kd [1] [nM] | kon [1] [M⁻¹ s⁻¹] | koff [1] [s⁻¹] | Kd [2] [nM] | koff [2] [s⁻¹] | kon [2] [M⁻¹ s⁻¹] | kobs, binding of free PDZØ9 to the dansyl-labeled peptide ([2]; 150 μM dansyl-labeled peptide, initial part of displacement trace) [s⁻¹]
1 | Ac-KRKETLV [KRKETLV] | 470 ± 2 | 7.2e+06 ± 20000 | 3.4 ± 0.01 | 80 ± 1 | 7.4e+06 ± 60000 | 0.6 ± 0.005 | 470 ± 6 | 6.4e+06 ± 60000 | 3 ± 0.03 | 80 ± 1 | 0.6 ± 0.005 | 8e+06 ± 60000 | 
2 | Ac-YRRESAI [YRRESAI] | 4200 ± 100 | 2.5e+07 ± 700000 | 105 ± 0.5 | 790 ± 10 | 1.9e+07 ± 100000 | 15 ± 0.2 | 4600 ± 100 | 1.9e+07 ± 500000 | 87 ± 0.5 | 770 ± 10 | 17 ± 0.2 | 2.2e+07 ± 200000 | 
3 | Ac-PGKETQL [PGKETQL] | 2700 ± 200 | 1.8e+07 ± 600000 | 48 ± 2.3 | 250 ± 4 | 2e+07 ± 300000 | 5 ± 0.02 | 2800 ± 100 | 1.8e+07 ± 600000 | 51 ± 1.8 | 240 ± 4 | 3.9 ± 0.03 | 1.6e+07 ± 200000 | 
4 | Ac-TSRETDL [TSRETDL] | 4100 ± 200 | 1.5e+07 ± 500000 | 62 ± 0.9 | 210 ± 6 | 1.8e+07 ± 400000 | 3.8 ± 0.06 | 2200 ± 70 | 3.3e+07 ± 1.1e+06 | 71 ± 0.5 | 170 ± 4 | 2.6 ± 0.04 | 1.5e+07 ± 200000 | 
5 | dansyl-labeled peptide: dansyl-labeled peptide corresponding to the C-terminal six residues of HPV18 E6, competitor in displacement experiments (RRRETQV; also: dansyl label, position not given here) [reference compound] |  |  |  |  |  |  |  |  |  |  |  |  | ~1000
6 | Ac-RSISTDV [RSISTDV] | 1800 ± 40 | 1.7e+07 ± 300000 | 31 ± 0.3 | 180 ± 3 | 2.4e+07 ± 300000 | 4.3 ± 0.05 | 1200 ± 30 | 2.1e+07 ± 500000 | 26 ± 0.3 | 250 ± 5 | 4.3 ± 0.06 | 1.7e+07 ± 200000 | 
7 | Ac-RRRETQV [RRRETQV, reference compound] | 370 ± 3 | 9e+06 ± 40000 | 3.3 ± 0.02 | 70 ± 1 | 8.7e+06 ± 40000 | 0.6 ± 0.01 | 400 ± 5 | 8e+06 ± 40000 | 3.2 ± 0.04 | 60 ± 2 | 0.6 ± 0.015 | 9.8e+06 ± 50000 | 
8 | Ac-NSKETVV [NSKETVV] | 790 ± 10 | 9.7e+06 ± 70000 | 7.7 ± 0.18 | 150 ± 1 | 1.3e+07 ± 90000 | 1.9 ± 0.01 | 660 ± 7 | 1.3e+07 ± 100000 | 8.6 ± 0.07 | 160 ± 2 | 1.6 ± 0.01 | 1e+07 ± 70000 | 
9 | Ac-SARSTDV [SARSTDV] | 2100 ± 30 | 1.2e+07 ± 100000 | 25 ± 0.3 | 220 ± 3 | 1.8e+07 ± 100000 | 4 ± 0.05 | 1600 ± 30 | 1.6e+07 ± 200000 | 26 ± 0.3 | 260 ± 5 | 3.4 ± 0.06 | 1.3e+07 ± 100000 | 
